Data on four compounds can be found in US12605376B2, “Methods of treating relapsing multiple sclerosis using an inhibitor of Bruton's tyrosine kinase” (Genentech, Inc., priority 2020, dated 2026).

Series [1] concerns panel of over 200 human kinases. The experiment in a line: Kinase selectivity screen in a panel of over 200 human kinases. Type of series: biochemical. The settings on record: for # off-target kinases >50% INH/# total kinases tested @ 1 μM: unpublished.
Series [2] has as its system cells of myeloid progenitor lineage (basophils). The experiment in a line: Inhibition of myeloid lineage progenitor cell activation (FcR signaling, basophils). The settings on record: (±SEM). It counts as cell-based.
Series [3] concerns B cells. Description: Inhibition of B cell activation (B-cell receptor signalling). The settings on record: (±SEM). Type of series: cell-based.
The subject of series [4] is panel of over 200 human kinases. Particulars: Crawford, et al., cited from earlier work.
Series [5] deals with B cells (CD69). The settings on record: B cell activation, human whole blood, literature values, cited from earlier work.
The test system of series [6] is basophils (CD63). Particulars: basophil activation, human whole blood, literature values, cited from earlier work.
A short description of series [7]: Safety analysis of previous fenebrutinib clinical trials in RA, SLE and CSU.
For series [8] the following is noted: without specific elimination procedures; cited from earlier work.
The mark [9] stands for this setting: patients with autoimmune conditions.

The structures appear in SMILES notation. Where two headings read alike, the source gives them in different places. Marks after values point to notes of the source that are not given here.

As for `C=CC(=O)N1CCC(CNc2ncnc(N)c2-c2ccc(Oc3ccccc3)cc2)CC1` [Evobrutinib], the “off-target kinases inhibited by >50% / kinases tested at 10 μM” value in series [1] (10 μM) is 18/218. Moreover, the EC50 – broadly, the concentration that produces a half-maximal response – in series [2] was found to be 171 nM; in series [3] it was 161 nM. Moreover, the values for the EC90 in series [2] and in series [3] were 3100 nM and 524 nM, respectively. The “# off-target kinases >50% INH/# total kinases tested @ 1 μM” value in series [4] (J Med Chem 2018, listed as EVO) is reported as 3/221; in series [4] (J Med Chem 2018), 3/221 ^a. Also, the concentration for half-maximal inhibition (IC50) (commonly the point on the concentration scale where inhibition reaches its midpoint) in series [5] was 84 nM; in series [6], 1660 nM.

As to `C[C@H]1CN(C2COC2)CCN1c1ccc(Nc2cc(-c3ccnc(N4CCn5c(cc6c5CC(C)(C)C6)C4=O)c3CO)cn(C)c2=O)nc1` [Fenebrutinib, (S)-2-(3′-(hydroxymethyl)-1-methyl-5-((5-(2-methyl-4-(oxetan-3-yl)piperazin-1-yl)pyridin-2-yl)amino)-6-oxo-1,6-dihydro-[3,4′-bipyridin]-2′-yl)-7,7-dimethyl-2,3,4,6,7,8-hexahydro-1H-cyclopenta[4,5]pyrrolo[1,2-a]pyrazin-1-one], in series [2], the concentration for a half-maximal effect (EC50) was found to be 15 nM and it took 62 nM to reach the 90% level (EC90). In addition, in series [3], the midpoint of the response, the EC50, lay at 8 nM and the 90% effect level (EC90) was put at 65 nM. Moreover, in series [4] (J Med Chem 2018, listed as FEN), the “# off-target kinases >50% INH/# total kinases tested @ 1 μM” value is given as 3/286. Further, in series [4] (J Med Chem 2018), the “# off-target kinases >50% INH/# total kinases tested @ 1 μM” value is listed as 2/286 ^a. Also, the concentration for half-maximal inhibition (IC50) in series [5] was 8.4 nM. For the same compound, the IC50 in series [5] (listed as FEN) was 8 nM. In series [6], the IC50 is 30.7 nM. Besides, the IC50 in series [6] (listed as FEN) was 31 nM. In addition, in series [7] (200 mg twice daily, n = 299), the “Headache, investigator-reported events” value was 16 (5.4%) patients (%); the “Nasopharyngitis, investigator-reported events” value is reported as 18 (6.0%) patients (%); the “Nausea, investigator-reported events” value is listed as 17 (5.7%) patients (%); the “Number of patients with AE leading to treatment withdrawal” value is given as 32 (10.7%) patients (%). In series [7] (200 mg twice daily, n = 299), the “Number of patients with Serious AE” value is 18 (6.0%) patients (%), the “Number of patients with Serious AE related to blinded fenebrutinib” value was 6 (2.0%) patients (%) and the “Number of patients with Study withdrawal due to AE” value was 17 (5.7%) patients (%). Besides, in series [7] (200 mg twice daily, n = 299, RA/SLE/CSU trials), the “Total adverse events (AEs)” value worked out at 507. Also, in series [7] (200 mg twice daily, n = 299, death deemed unrelated to fenebrutinib), the “Number of patients with Fatal AE” value is given as 1 (0.3%) patients (%). Further, the “Percent of patients with infection adverse events” value (“Percent of patients” below) in series [7] (CSU, 200 mg, n = 52, median follow-up 56 days) is recorded as 32.7% (n = 52). In addition, in series [7] (RA cohort 1, 200 mg, n = 110, median follow-up 84 days), the “Percent of patients” value is 10.9% (n = 110). The “Percent of patients” value in series [7] (RA cohort 2, 200 mg, n = 49, median follow-up 84 days) is given as 6.1% (n = 49). Further, the “Percent of patients” value in series [7] (SLE, 200 mg, n = 88, median follow-up 336 days) was 46.6% (n = 88). The “infection rates in fenebrutinib arms compared to placebo” value in series [7] (background immunosuppressant therapy in RA and SLE) is “no imbalance of infection rates”. Moreover, the “patients with serious infections” value in series [7] (combined fenebrutinib arms) is listed as 2.0%. Also, in series [7] (fenebrutinib arms), the “bleeding or bruising, patients” value was found to be 7.7%. In series [7] (setting [9]), the “Hy's law cases” value is reported as “no Hy's law cases”; the “risk causally associated with fenebrutinib (liver aminotransferase elevations)” value was “Asymptomatic and reversible liver aminotransferase elevations were the only risk causally associated with fenebrutinib”. The “atrial fibrillations, flutters, or other supraventricular tachyarrhythmias” value in series [7] (randomized clinical trial patients) is given as “No fenebrutinib randomized clinical trial patients had atrial fibrillations, flutters, or other supraventricular tachyarrhythmias”.

With `C=CC(=O)N1CCC[C@@H](n2c(=O)n(-c3ccc(Oc4ccccc4)cc3)c3c(N)nccc32)C1` [Tolebrutinib], the “# off-target kinases >50% INH/# total kinases tested @ 1 μM” value in series [1] is recorded as 19/218 ^d; in series [1] (listed as TOL) it was 19/218. Further, the results for the EC50 in series [2] and in series [3] were 80 nM and 26 nM, respectively. Further, the figures for the EC90 in series [2] and in series [3] were 281 nM and 84 nM, respectively. Further, the IC50 was 10 nM in series [5] and 166 nM in series [6].

With `C/C(O)=C(\C#N)C(=O)Nc1ccc(C(F)(F)F)cc1` [teriflunomide], the “time to lower plasma teriflunomide concentrations to 0.02 mg/L” value in series [8] was “up to 2 years”.
